Series [1] concerns HCT-116 colon cancer cells. In words: 5-FU treatment and cytotoxicity assay (WST-1). It counts as cell-based, human. To be noted: 50 nM modified miR-129 vs 2 μM 5-FU. The procedure:
5-FU treatment and cytotoxicity assay: Twenty-four hours after transfection, cancer cells were plated in 96-well plates at 2×10^3 cells per well in triplicates in 100 μL of medium. After 24 hours, fresh medium containing 2 μM 5-FU alone, 50 nM native microRNA, 50 nM modified microRNA (e.g., modified miR-129), or a combination of […] with 50 nM a modified microRNA of the present disclosure e.g., modified miR-129, were added, and cells were cultured for an additional 72 hours. Cell viability was measured using the WST-1 assay.

Series [2] concerns metastatic human colon cancer cells. In words: Colon cancer metastasis mouse model, intravenous miRNA delivery. In kind it is in vivo. The note with it: 40 μg intravenous, every other day for two weeks. The procedure: For in vivo miRNA delivery experiments, colon cancer cells were created that expressed the lenti-luc reporter gene by infecting parental HCT116 cells with a recombinant lentivirus. Luciferase-expressing HCT116 cells (2.0×10^6 cells per mouse) were suspended in 0.1 mL of PBS solution and was injected through tail vein of each mouse. Two weeks after injection of colon cancer cells, mice were treated via tail vein injection with 40 μg of negative control or modified miR(s) packaged with in vivo-jetPEI (Polyplus Transfection). Mice were treated every other day for 2 weeks (8 times). Following treatment, mice were screened using IVIS Spectrum In vivo Imaging System (IVIS) (PerkinElmer).

The subject of the next series is cancer cells. Kind of series: Real-time qRT-PCR of modified miR entry into cancer cells. The note with it: quantitative Real-Time PCR. In kind it is cell-based, human. The procedure:
Real-time qRT-PCR analysis of nucleic acid expression. The expression levels of microRNAs in cancer cells were quantified. Briefly, the primers specific to the microRNA of interest and an internal control RNU44 gene were purchased from Ambion. cDNA synthesis was performed by the High Capacity cDNA Synthesis Kit (Applied Biosystems) with miRNA-specific primers. Real-time qRT-PCR was carried out on an Applied Biosystems 7500 Real-Time PCR machine with miRNA-specific primers by TaqMan Gene Expression Assay (Applied Biosystems). Expression level of the exemplary miRs of the present disclosure was calculated by the ΔΔCT method based on the internal control RNU44, normalized to the control group and plotted as relative quantification.
In general terms: Real-time PCR tracks product formation cycle by cycle.

Another series addresses T1, TS-FdUMP (Homo sapiens, UniProt P04818).
T1 construct: endogenous in cells
In words: Western blot of TS-FdUMP in colon cancer cells. In kind it is cell-based. To be noted: colon/colorectal cancer cells. The procedure: (§1) Western immunoblot analysis: Forty-eight hours after transfection, equal amounts of protein (15 μg) extracted from cells lysed in RIPA buffer with protease inhibitor (Sigma) and were separated on 10%-12% sodium dodecyl sulfate-polyacrylamide gels using standard procedures. The primary antibodies used for the analysis were rabbit anti-YAP1 monoclonal antibody (1:10000) (Cell Signaling Technologies), anti-DLCK1 (1:500) (Abcam), anti-BCL2 (1:500) (NeoMarkers), anti-MDC1 (1:500), anti-SUZ12 (1:500), anti-pChk-1 (1:500), anti beta-actin (1:500), anti-BMI-1 (1:10000) (Cell Signaling Technologies), mouse anti-human TS antibody (1:500), anti-α-tubulin (1:50000) (Santa Cruz Biotech Inc.), anti-GAPDH (1:100000) (Santa Cruz Biotech Inc.), anti-E2F3 (1:500) (Santa Cruz Biotech Inc.), Horseradish peroxidase-conjugated antibodies against mouse or rabbit (1:5000, Santa Cruz Biotech Inc.) were used as the secondary antibodies. Protein bands were visualized with autoradiography film using SuperSignal West Pico Chemiluminescent Substrate (Thermo Fischer). Western blot density was quantified using Image J software.
A general note: Immunoblotting shows a protein as a band on a membrane.

Series [3] deals with HCT116, RKO, SW480, and SW620 colon cancer cells. In words: FITC-Annexin V apoptosis assay. On the set-up: species or system human. To be noted: FACS-based FITC-Annexin assay, all 4 colon cancer cell lines, compared to native miR-129 and negative control miRNA. The procedure:
Apoptosis Assay. To distinguish between early and late apoptosis, a fluorescein isothiocyanate (FITC)—Annexin assay was done (Becton Dickinson). HCT116, RKO, SW480 and SW620 cells were plated into 6 well plates (1×10^5) cells per well, after 24 h, cells were transfected with 25 nM modified miRNAs using Oligofectamine. Forty-eight hours after transfection, cells were harvested, stained with propidium iodide and anti-annexin-V antibody (Annexin V-FITC Apoptosis Detection kit, Invitrogen, CA, USA) following the manufacturer's protocol, and stained cells were detected by flow cytometry.

In series [4] the test system is YAP1, BMI1, DCLK1 and BCL2. Kind of series: Western blot of miR-15a targets in HCT-116 colon cancer stem cells. To be noted: three days following transfection. It counts as cell-based, human. As to the method:
as §1, with “[…],” for “Forty-eight hours after transfection,”, “software. […]” for “software.”

Series [5] relates to colorectal cancer stem cell xenograft. In words: Colorectal cancer stem cell mouse xenograft model. In kind it is in vivo. To be noted: cells pre transfected, eight weeks after injection, n=8. The procedure: Mouse subcutaneous tumor implantation model: Two days before injection, HCT116 colorectal cancer stem cells or MDA-MB-231 breast cancer cells were plated at 5×10^5/well in a 6-well ultra low attachment plate. 20 μL of the virus or 100 pmole exemplary modified miR-129 or modified miR-15a were used to transduce or transfect cells. Forty-eight hours later, cells were collected and re-suspended at 10^6/ml in DMEM/F12 knockout media with 30% matrigel. Ten-twelve week-old NOD/SCID mice (Jackson Laboratories, Bar Harbor, […], USA) were used for tumor implantation. The mice were anesthetized by isoflurane inhalation. 100 μL of cell suspension was injected subcutaneously into both sides of the lower back area. The tumor size was measured using a caliper, and tumor volume was calculated using the formula V=length×width^2/2.
Modified miR-15a inhibits cancer development and progression in vivo. A colorectal cancer stem cell mouse xenograft model was established that included colorectal cancer cells that have been either pre transfected with modified miR-15a or negative control miRNA. Eight weeks after injection, tumors were measured and harvested.

[5FU] = 5-fluorouracil base replacing uracil

The values below come from patent US12319913B2, “5-halouracil-modified microRNAs and their use in the treatment of cancer” (The Research Foundation for The State University of New York, priority 2018, dated 2025).

T1 sequence (P04818 2-313 limits assumed): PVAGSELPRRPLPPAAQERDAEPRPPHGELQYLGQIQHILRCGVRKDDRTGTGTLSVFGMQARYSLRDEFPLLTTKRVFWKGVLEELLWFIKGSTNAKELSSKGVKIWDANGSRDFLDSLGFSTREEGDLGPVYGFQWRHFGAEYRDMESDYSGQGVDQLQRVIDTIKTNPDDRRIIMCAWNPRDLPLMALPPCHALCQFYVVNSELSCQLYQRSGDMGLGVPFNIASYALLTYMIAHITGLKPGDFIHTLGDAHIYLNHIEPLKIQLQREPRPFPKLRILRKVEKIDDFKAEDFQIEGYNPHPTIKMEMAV

“CU^FU^FU^FU^FU^FGCGGU^FCU^FGGGCU^FU^FGC (CUUUUUGCGGUCUGGGCUUGC; RNA, [5FU] at 2, 3, 4, 5, 6, 11, 13, 18, 19, backbone not given here) [modified miR-129]”: the “inhibiting tumor cell proliferation, potency compared with 5-FU” value in series [1] is given as “much more potent than 2 μM 5-FU”. The colon cancer metastasis result in series [2] was “inhibits colon cancer metastasis”. The toxicity result is reported as “did not exhibit any toxicity” in series [2] and “no toxic side effects” in series [2] (listed as modified microRNA-129). For the same substance, the “entry into cancer cells” value in the series with cancer cells is given as “enter cancer cells”. Further, the TS-FdUMP break down entry with TS-FdUMP was “break downs TS-FdUMP significantly better than 5-FU alone”. This substance showed an induction of apoptosis in series [3] of 2 to 30 fold.

For the substance “U^FAGCAGCACAU^FAAU^FGGU^FU^FU^FGU^FG (UAGCAGCACAUAAUGGUUUGUG; RNA, [5FU] at 1, 11, 14, 17, 18, 19, 21, backbone not given here) [modified miR-15a]”, the “protein levels of YAP1, BMI1, DCLK1 and BCL2” value in series [4] is given as “reduced”. In addition, in series [2], the colon cancer metastasis entry is listed as “inhibit colon cancer metastasis” and the toxicity entry is “did not exhibit any toxicity”. Moreover, the TS-FdUMP break down result with TS-FdUMP is listed as “break downs TS-FdUMP”. Moreover, the “reduction in tumor size” value in series [5] is listed as over 25 ×.
